Structures are written as SMILES.

T1 sequence (P07947 2-543): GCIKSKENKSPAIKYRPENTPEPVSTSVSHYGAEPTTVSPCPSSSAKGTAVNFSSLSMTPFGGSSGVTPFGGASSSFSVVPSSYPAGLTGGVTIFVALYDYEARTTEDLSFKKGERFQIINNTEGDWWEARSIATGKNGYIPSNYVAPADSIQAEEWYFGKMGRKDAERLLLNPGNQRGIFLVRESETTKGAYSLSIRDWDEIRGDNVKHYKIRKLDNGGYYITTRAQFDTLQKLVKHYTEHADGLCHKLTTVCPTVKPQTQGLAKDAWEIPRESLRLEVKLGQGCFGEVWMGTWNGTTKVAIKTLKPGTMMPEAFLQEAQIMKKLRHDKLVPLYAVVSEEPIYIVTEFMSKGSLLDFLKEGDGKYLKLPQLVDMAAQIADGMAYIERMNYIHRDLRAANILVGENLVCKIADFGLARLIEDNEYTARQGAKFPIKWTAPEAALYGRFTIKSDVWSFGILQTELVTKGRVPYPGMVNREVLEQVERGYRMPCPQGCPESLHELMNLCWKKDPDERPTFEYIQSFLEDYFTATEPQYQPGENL

One test concerns the target T1, human recombinant Yes [a.a. 2–543 (end)] (Homo sapiens, UniProt P07947).
T1 construct: human recombinant Yes [a.a; 2–543 (end)]; purchased BPS Bioscience 40488
Kind of test: ADP-Glo kinase assay, inhibition rates of Yes phosphorylation activity (first and second screening). Type of test: biochemical. The following applies: first screening; mean of n = 4 wells; 10 μmol L−1 compound. Summed up:
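ADP-Glo luminescence measured inhibition of human recombinant Yes (a.a. 2–543) phosphorylation activity. In the first screen, each compound ran in 4 wells and inhibition rates were averaged. The second screen retested hits as compounds dissolved from fresh powder.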
On the technique in general: In ADP-Glo the light output rises with the ADP produced.
For `CCCn1c(NC(=O)c2ccc3c(c2)S(=O)(=O)N(C(C)C)C3=O)nc2ccccc21` [Compound Z641940000], the “First screening IR (inhibition rate)” value turned out to be 10%.
On the same count and under the same terms, as for `FC(F)(F)c1ccnc(Nc2ccc(N3CCCCCC3)cc2)n1` [Compound Z642699568], the figure is -21%; as for `c1ccc(-c2nc3c4ccccc4c4ccccc4c3n2-c2ccccc2)cc1` [Compound Z56798059], 6%.
Still for that read-out and setting: to `CS(=O)(=O)c1ccc(N2CCCCCC2)c(S(C)(=O)=O)c1` [Compound Z199538216] belongs 51%.
On to `CSc1ccc(CSCc2nc(N)nc(Nc3ccc(F)cc3)n2)cc1` [Compound Z135100070], for which the “First screening IR (inhibition rate)” value is -6%.
On to `CC(NC(c1ccccc1)c1ccccn1)c1ccncc1` (stereo not drawn) [Compound Z335491150], for which the “First screening IR (inhibition rate)” value is 3%.
Turning to `N#CCCn1ncc2c(NCc3ccc4c(c3)OCCO4)ncnc21` [Compound Z990838348], the “First screening IR (inhibition rate)” value was 2%.
For the compound `COc1ccccc1/C=C1\CC(C)Cc2c1nc1ccccc1c2C(=O)O` (stereo not drawn) [Compound Z46107852], the “First screening IR (inhibition rate)” value was -1%.
The same measure, in the same setting: as for `N#CCCn1ncc2c(N3CCN(Cc4ccco4)CC3)ncnc21` [Compound Z990852254], the figure is 3%; as for `Cc1nn(CCc2nc(-c3ccco3)cs2)c2nc(-c3cccs3)cc(C(F)(F)F)c12` [Compound Z55404718], 38%.
In the case of `COc1ccc(-c2c(C#N)c(=O)[nH]c3c2c(C)nn3-c2ccccc2)cc1OC` [Compound Z1007027518], the “First screening IR (inhibition rate)” value is on record as -1%.
As for `CC1CCc2c(sc3nc4c(c(-c5ccco5)c23)-c2ccccc2CC4)C1.Cl` (stereo not drawn) [Compound Z76887050], the “First screening IR (inhibition rate)” value is 8%.
On to `COc1cccc2cc(C(=O)N3CCN(S(=O)(=O)c4ccccc4C(F)(F)F)CC3)c(=O)oc12` [Compound Z29531247], for which the “First screening IR (inhibition rate)” value came to 18%.
In the case of `CCN(CC)c1ccc(C(=O)NC(=S)Nc2nc(-c3cccs3)cs2)cc1` [Compound Z56787522], the “First screening IR (inhibition rate)” value is -9%.
Turning to `O=C(NCc1ccc(COCC(F)(F)F)cc1)c1ccc2nc[nH]c2c1` [Compound Z226277016], the “First screening IR (inhibition rate)” value was 13%.
In the case of `C=CCNc1nc(C(=O)OCc2csc(-c3ccccc3)n2)cs1` [Compound Z17964966], the “First screening IR (inhibition rate)” value is recorded as 18%.
Same read-out and setting: to `CN(C1CCS(=O)(=O)C1)S(=O)(=O)c1ccc(F)cc1` (stereo not drawn) [Compound Z56813369] belongs -5%.
On the same count and under the same terms, as for `CC(C)c1ccc2cc(C(=O)NCCN3CCS(=O)(=O)CC3)[nH]c2c1` [Compound Z649805708], the figure is -31%; as for `Nc1ncnc(Nc2ccccc2)n1` [Compound Z56768427], 16%; as for `COC(=O)Nc1ccc(NC(=O)C2CC2c2ccc(C(C)C)cc2)cc1F` (stereo not drawn) [Compound Z1646916001], 7%.
As for `Cc1nc(N(C)C(C)c2ccc([S+](C)[O-])cc2)c2cnn(C)c2n1` (stereo not drawn) [Compound Z1324037636], the “First screening IR (inhibition rate)” value is recorded as 9%.
Take `CN(C)C(=O)CN1CCN(CC(=O)Nc2cc(-c3ccc4c(c3)CCC4)nn2-c2ccccc2)CC1` [Compound Z106627256]: the “First screening IR (inhibition rate)” value is reported as -3%.
On to `O=C(OCc1nc(-c2cccs2)no1)c1c(F)cccc1Cl` [Compound Z51180604], for which the “First screening IR (inhibition rate)” value is 8%.
Regarding `Brc1ccc(-c2cc(-c3ccccc3)c3ccccc3n2)cc1.Cl` [Compound Z48951036], the “First screening IR (inhibition rate)” value was determined as 5%.
In the case of `O=C(Nc1ccc2[nH]c(=O)[nH]c2c1)c1cc2c(s1)-c1ccccc1CC2` [Compound Z26792816], the “First screening IR (inhibition rate)” value came out at 4%.
As to `Cc1oc(-c2ccsc2)nc1CC(=O)Nc1cc(C(N)=O)n(C)c1` [Compound Z1039455578], the “First screening IR (inhibition rate)” value stood at 2%.
As for `Nc1nc(N2CC=C(c3ccccc3F)CC2)c2[nH]cnc2n1` [Compound Z1699229618], the “First screening IR (inhibition rate)” value is 60%.
On the same count and under the same terms, to `CC1CC(C)CN(S(=O)(=O)c2ccccc2S(C)(=O)=O)C1` (stereo not drawn) [Compound Z285665176] belongs 55%; to `CS(=O)(=O)c1cccc(S(N)(=O)=O)c1` [Compound Z299680982], 5%; to `Cc1cccc(NC(=O)C2CCCN(c3nc(CN4CCOCC4)nc4sc(C)c(C)c34)C2)n1` (stereo not drawn) [Compound Z573238670], -5%.
In the case of `O=C(Nc1nc2cc(C(F)(F)F)ccc2n1Cc1ccco1)c1ccc2n[nH]nc2c1` [Compound Z245503032], the “First screening IR (inhibition rate)” value turned out to be 0%.
Consider `COc1cccc(OCCN2CCN(c3cc(C(C)(C)C)nc4c(-c5ccc(F)cc5)c(C)nn34)CC2)c1` [Compound Z439257332], for which the “First screening IR (inhibition rate)” value is recorded as -1%.
On to `CC(CCN1CCN(c2ccccc2)CC1)NC(=O)c1cc(-c2ccco2)nc2c1cnn2C(C)C` (stereo not drawn) [Compound Z385234634], for which the “First screening IR (inhibition rate)” value was found to be 62%.
As to `O=C(Nc1cc(Cl)cc(Br)c1OC(F)F)C(=O)N1CCCSCC1` [Compound Z754942410], the “First screening IR (inhibition rate)” value was found to be 13%.
As for `Cc1ccc(-n2c(=O)/c(=C/c3ccc4c(c3)OCO4)s/c2=C(/C#N)C(=O)NCCN2CCOCC2)c(C)c1` [Compound Z47840324], the “First screening IR (inhibition rate)” value is on record as -11%.
Turning to `N#CC(C(=O)NCc1ccc2c(c1)OCO2)c1nc2ccccc2nc1N1CCN(Cc2ccccc2)CC1` (stereo not drawn) [Compound Z56854297], the “First screening IR (inhibition rate)” value is listed as -7%.
As to `CCCn1c(=O)[nH]c(=O)c2c(C(=O)Nc3ccccc3N3CCOCC3)cc(C3CC3)nc21` [Compound Z337770612], the “First screening IR (inhibition rate)” value is on record as -5%.
Still for that read-out and setting: to `O=S(=O)(c1ccccc1Cl)N1CCN(Cc2nc(-c3cccc(Cl)c3)no2)CC1` [Compound Z90240663] belongs -3%; to `Cc1nn(C)c2nc(-c3ccccc3)cc(C(=O)Nc3ccc4nc(CN5CCOCC5)[nH]c4c3)c12` [Compound Z826860216], 35%; to `CCN(C(=O)CN(C)CC(=O)Nc1c(C)cc(C)cc1C)c1cccc2ccccc12` [Compound Z46455760], -4%.
For the compound `C(=C\c1nc2cc(-c3ccccc3)ccc2o1)/c1cccnc1` [Compound Z46080472], the “First screening IR (inhibition rate)” value is 11%.
Take `O=C(CCc1ccsc1)Nc1cc(C(F)(F)F)c[nH]c1=O` [Compound Z432185696]: the “First screening IR (inhibition rate)” value was 4%.
On the same count and under the same terms, as for `O=C(OCc1nc(-c2cccs2)no1)c1ccc2ccccc2n1` [Compound Z51170832], the figure is 19%.
As for `Cc1ccc(Cn2c(=O)c3ccccc3n3c(CCC(=O)NCCCN4CCOCC4)nnc23)cc1` [Compound Z1169067737], the “First screening IR (inhibition rate)” value came to 2%.
As to `O=C(NCC1COc2ccccc2O1)c1cccc(OCc2cn3ccccc3n2)c1` (stereo not drawn) [Compound Z185334464], the “First screening IR (inhibition rate)” value is listed as -12%.
For the compound `CCCCOc1ccc(/C=C2/C(=O)Nc3ccc(Cl)cc32)cc1` [Compound Z44304381], the “First screening IR (inhibition rate)” value is 6%.
For the compound `COc1ccc(CCN2CC(C(=O)Nc3c(-c4ccccc4)nc4ccc(C)cn34)CC2=O)cc1OC` (stereo not drawn) [Compound Z70997275], the “First screening IR (inhibition rate)” value is listed as -15%.
Turning to `O=S(=O)(c1cccc(Cl)c1Cl)N1CCN(Cc2nc(-c3ccc(F)cc3)no2)CC1` [Compound Z52670207], the “First screening IR (inhibition rate)” value is -5%.
Turning to `Cc1c[nH]c(=O)n1-c1cccc(NC(=O)C2CC(=O)N(C)C2c2cccnc2)c1` (stereo not drawn) [Compound Z1204166998], the “First screening IR (inhibition rate)” value is recorded as -13%.
For `CCn1nc(NCc2cn[nH]c2-c2ccc(C)o2)cc1C1CC1` [Compound Z1421828757], the “First screening IR (inhibition rate)” value came to 13%.
As for `Cc1ccc(C)c(CS(=O)(=O)CCCS(=O)(=O)N(C)C)c1` [Compound Z1127660495], the “First screening IR (inhibition rate)” value is on record as 12%.
On the same count and under the same terms, to `Cc1c(-c2ccc(O)cc2)nc2ccc(Cl)cc2c1-c1ccccc1.Cl` [Compound Z48950829] belongs 33%.
Turning to `CCC(CC)N(C)S(=O)(=O)c1ccc(S(N)(=O)=O)cc1` [Compound Z369246436], the “First screening IR (inhibition rate)” value was -4%.
For the compound `CCN(CCC#N)S(=O)(=O)c1cc(C)cc(S(C)(=O)=O)c1C` [Compound Z1145197816], the “First screening IR (inhibition rate)” value was -2%.
Consider `CN(C1CCCCC1)S(=O)(=O)N1CCS(=O)(=O)CC1` [Compound Z1082836720], for which the “First screening IR (inhibition rate)” value is reported as -4%.
On the same count and under the same terms, as for `COc1ccccc1NC(=O)C1=C(C)Nc2nc(SCc3ccccc3)nn2C1c1ccncc1` (stereo not drawn) [Compound Z1227522997], the figure is -5%; as for `CS(=O)(=O)c1ccc(Cl)c(S(C)(=O)=O)c1` [Compound Z87002147], 0%; as for `O=C(CN1CCSc2ccccc21)N1CCN(S(=O)(=O)c2ccc(Cl)s2)CC1` [Compound Z105335628], -5%.
In the case of `O=C(CCCNC(=O)c1ccc(-c2ccccc2F)o1)Nc1ccc(Cl)cc1` [Compound Z730571712], the “First screening IR (inhibition rate)” value amounted to 2%.
`CCc1cccc(NC(=O)COC(=O)Cc2cccc3ccccc23)c1` [Compound Z19678477]: the “First screening IR (inhibition rate)” value amounted to 7%.
As to `O=C1OCCN1Cc1ccc(Nc2nccc(C(F)(F)F)n2)cc1` [Compound Z646432252], the “First screening IR (inhibition rate)” value turned out to be 11%.
As to `Cc1ccc(-n2c(SCC(=O)Nc3ccc(N4CCOCC4)cc3)nnc2-c2cccnc2)c(C)c1` [Compound Z18666705], the “First screening IR (inhibition rate)” value worked out at 54%.

The test is the same for the next values; noted with them: second screening, dissolved from fresh powder; n = 4; 10 μmol L−1 compound.
Turning to `CS(=O)(=O)c1ccc(N2CCCCCC2)c(S(C)(=O)=O)c1` [Compound Z199538216], the “Second screening IR (inhibition rate)” value is -10%.
Regarding `CC(CCN1CCN(c2ccccc2)CC1)NC(=O)c1cc(-c2ccco2)nc2c1cnn2C(C)C` (stereo not drawn) [Compound Z385234634], the “Second screening IR (inhibition rate)” value is listed as 1%.
The same measure, in the same setting: as for `Cc1nn(C)c2nc(-c3ccccc3)cc(C(=O)Nc3ccc4nc(CN5CCOCC5)[nH]c4c3)c12` [Compound Z826860216], the figure is -11%; as for `Cc1c(-c2ccc(O)cc2)nc2ccc(Cl)cc2c1-c1ccccc1.Cl` [Compound Z48950829], 14%.

For the origin of these results see publication PMC5607274, “An iterative compound screening contest method for identifying target protein inhibitors using the tyrosine-protein kinase Yes” (Scientific Reports, 2017).
